Where “and” joins values, the source holds several entries; their conditions need not be identical. Equal entries are not always repeated.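 1) Cells in 96-well plates. 2) Compound, 48 h, 5 concentrations. 3) Linear interpolation between surrounding doses. 4) Unreached endpoint = highest concentration. GI50 marks 50% less growth. TGI denotes the concentration required for complete inhibition of growth.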
Assays:
Assay in all cases: growth of human tumour cells (NCI), 48 h
A498 renal = tested on: A498 renal
BT-549 breast = tested on: BT-549 breast
HS 578T breast = tested on: HS 578T breast
M14 melanoma = tested on: M14 melanoma
MDA-MB-435 = tested on: MDA-MB-435
MOLT-4 leukemia = tested on: MOLT-4 leukemia
OVCAR-5 ovarian = tested on: OVCAR-5 ovarian
SF-295 CNS = tested on: SF-295 CNS
SK-MEL-5 melanoma = tested on: SK-MEL-5 melanoma
U251 CNS = tested on: U251 CNS

| SMILES | GI50 (A498 renal) [µM] | TGI (A498 renal) [µM] | GI50 (BT-549 breast) | TGI (BT-549 breast) | GI50 (HS 578T breast) [µM] | TGI (HS 578T breast) [µM] | GI50 (M14 melanoma) [µM] | TGI (M14 melanoma) [µM] | GI50 (MDA-MB-435) [µM] | TGI (MDA-MB-435) [µM] | GI50 (MOLT-4 leukemia) [µM] | TGI (MOLT-4 leukemia) | GI50 (OVCAR-5 ovarian) [µM] | TGI (OVCAR-5 ovarian) [µM] | GI50 (SF-295 CNS) [µM] | TGI (SF-295 CNS) [µM] | GI50 (SK-MEL-5 melanoma) [µM] | TGI (SK-MEL-5 melanoma) [µM] | GI50 (U251 CNS) | TGI (U251 CNS) [µM] |
| --- | --- | --- | --- | --- | --- | --- | --- | --- | --- | --- | --- | --- | --- | --- | --- | --- | --- | --- | --- | --- |
| Cn1nc(C(F)(F)F)cc1-c1c[nH]c(OCc2ccc(Cl)cc2)c(-c2ccc(Cl)c(C(F)(F)F)c2)c1=O | 0.446 | 1.31 | 1.04 µM | 3.31 µM | 1.07 | 3.85 | 1.27 | 4.26 | 1.37 | 6.75 | 1.16 | 3.03 µM | 1.71 | > 32.8 | 0.887 | 2.18 | 0.568 | 1.34 | 1.27 µM | > 17.5 |
| CCCc1cc(=O)n2c(C(=O)Nc3cccc(C(=O)OCC)c3)c(C(=O)Nc3ccc(F)cc3)sc2n1 | 8.57 | 32.2 | > 140 µM | > 140 µM | 1.3 | 6.37 | 9.6 | 86 | > 140 | > 140 | > 140 | > 140 µM | 136 | > 140 | 44.6 | > 140 | 75.1 | > 140 | 3.55 µM | 48.6 |
| N=N/C(=C\c1c(O)[nH]c2ccccc12)c1ccccc1 |  | 91.6 |  | 62.3 µM |  | 44.4 |  | > 65.9 |  | 20.3 |  | > 100 µM |  | > 100 |  | 66 |  | > 100 |  | > 83.9 |
| [Cl][Hg][c]1ccc(Cl)s1 | 17.2 | 31.2 | 2.11 µM | 5.21 µM | 4.41 | 73.7 | 1.55 | 3.17 | 2.08 | 5.7 | 1.64 | 6.68 µM | 1.72 | 3.29 | 11.5 | 25.7 | 2.45 | 7.34 | 0.91 µM | 2.71 |
| COc1cc(/C(=C2/O[C@@H]([C@H]3COC(C)(C)O3)[C@H]3OC(C)(C)O[C@@H]23)c2ccc3ccccc3c2)cc(OC)c1OC | 17.8 | 74.6 | 3.22 µM | 8.1 µM | 4.44 | 53.4 | 6.7 | 23.8 | 3.61 | 17.5 | > 100 | > 100 µM | 14 | > 100 | 6.92 | 52.1 | 4.07 | 15.4 | 3.12 µM | 11.8 |
| COCCNc1ccc2c3c(cccc13)C(=O)N(CCN(C)C)C2=O | 6.16 | 21.5 | 10.7 µM | > 25 µM | 9.38 | > 25 | 7.98 | > 25 | 8.15 | > 25 | 4.98 | 13 µM | 9.41 | > 25 | 6.31 | 21.1 | 4.76 | 13.1 | 8.71 µM | > 25 |
| CCCCCCCCCCCCSC1=C(Cl)C(=O)C(OC)=C(OC)C1=O |  | 14.1 | 1.2 µM | 9.35 µM | 2.76 | 7.96 | 2.53 | 18.4 | 0.653 | 10.2 | 0.617 | 18.6 µM | 3.49 | 11.7 | 2.03 | 7 | 0.49 | 3.66 | 1.57 µM | 12.2 |
| CCCCCCCCC/C(=N\NC(=O)c1ccncc1)c1ccc(O)c(O)c1O | 1.56 | > 100 | 0.36 µM | 67.2 µM |  | > 100 | 0.175 | 1.14 | 0.456 | > 100 | 0.246 | 25.3 µM | 0.765 | 78.6 | 0.307 | > 100 | 0.139 | 0.494 | 0.11 µM | 65.9 |
| CCN1C(=O)N(CC)C2C1NN=c1s/c(=C\c3ccco3)c(=O)n12 (centres undefined) | 0.39 |  | 0.791 µM | > 100 µM | 0.459 | > 100 | 0.415 | > 35.5 | 0.138 | 0.58 | 0.824 | > 100 µM | 1.31 | > 100 | 0.47 | > 44.6 | 0.415 | 55.3 | 0.576 µM | > 100 |
| C#CCN(Cc1nc2cc(C(F)(F)F)ccc2nc1-c1ccccc1)c1ccc(C)cc1 | 10.6 | 27.5 | 22.2 µM | 69.9 µM | 10.2 | > 54.4 | 5.4 | 32 | 2.73 | 9.09 | 3.1 | > 79.9 µM | > 21.2 | > 40.9 | 4.78 | > 31.8 | 17 | > 32.4 | 11.6 µM | > 38.1 |
| COC(=O)C1=COC(C)C2CN3CCc4c([nH]c5cc(OC)c(OC)cc45)C3CC12 (centres undefined) |  | > 100 | > 100 µM and 18.5 µM | > 100 µM and 61.6 µM |  | > 100 |  | > 100 |  | > 100 |  | > 100 µM and 79.1 µM |  | > 100 |  | > 100 |  | > 100 | > 100 µM and 47.4 µM | > 100 |
| CONC(C)=O |  | > 100 |  | > 100 µM |  | > 100 |  | > 100 |  | > 100 |  | > 100 µM |  | > 100 |  | > 100 |  | > 100 |  | > 100 |

Reference: PubChem BioAssay (NCI)
